Results reported in patent US6696404B1, “Antibacterial composition having xanthorrizol” (LG Household & Healthcare, priority 1999, dated 2004).
Converted amounts (≈) assume the structure as drawn.

Experiments:
Streptococcus mutans [1] = assay: Minimum inhibitory concentration of active fractions; type: cell-based
Description: The crude extract, prepared in Example 1-1 was applied to a silica gel column chromatography: the crude extract was applied to a column chromatography(5×43 cm) filled with silica gel(Merck, U.S.A.) of 70 to 230 mesh, and eluted with a mixed gradient of hexane and ethylacetate (10:1→3:1→1:1). Then, thin layer chromatography(TLC) was performed with the active fractions obtained in the course of chromatographic procedure to give 8 different fractions(fractions I to VIII ) with similar retention on the TLC plate. Antibacterial activity of the fractions was measured in terms of minimum inhibitory concentration(MIC), and compared to that of vancomycin.

[2] = tested on: Staphylococcus aureus ATCC 12600; assay: MIC by 2-fold dilution; type: cell-based; details: ATCC12600, 2×10^5 CFU/ml, 30 to 37° C., more than 24 hours
Description: (§1) In addition, minimum inhibitory concentration(MIC, μg/ml) for various microorganisms was determined by performing 2-fold dilution: first, 1 ml of medium was taken into each tube, and 1 ml of xanthorrizol(0.05% in DMSO) was added to only one tube to make 2-fold dilution. Then, serial 2-fold dilution was further carried out for the rest of the tubes, starting from the tube containing xanthorrizol. 100 μl of microorganism was added into each tube prepared by the 2-fold dilution to contain a final cell number of 2×10^5 CFU/ml, and incubated at 30 to 37° C. for more than 24 hours to determine minimum inhibitory concentrations for various test microorganisms(see: Table 12).

[3] = tested on: Streptococcus salivarius ATCC 9758; assay: MIC by 2-fold dilution; type: cell-based; details: ATCC9758, 2×10^5 CFU/ml, 30 to 37° C., more than 24 hours
Description: as §1

[4] = tested on: Propionibacterium acnes ATCC 6919; assay: MIC by 2-fold dilution; type: cell-based; details: Cutibacterium acnes, ATCC6919; 2×10^5 CFU/ml; 30 to 37° C., more than 24 hours
Description: as §1

[5] = tested on: Lactobacillus casei ATCC 4646; assay: MIC by 2-fold dilution; type: cell-based; details: Lacticaseibacillus casei, ATCC4646; 2×10^5 CFU/ml; 30 to 37° C., more than 24 hours
Description: as §1

[6] = tested on: Saccharomyces cerevisiae ATCC 9763; assay: MIC by 2-fold dilution; type: cell-based; details: ATCC9763, 2×10^5 CFU/ml, 30 to 37° C., more than 24 hours
Description: as §1

[7] = tested on: Streptococcus mutans ATCC 25175; assay: MIC by 2-fold dilution; type: cell-based; details: ATCC25175, 2×10^5 CFU/ml, 30 to 37° C., more than 24 hours
Description: as §1

[8] = tested on: Enterococcus faecalis ATCC 19433; assay: MIC by 2-fold dilution; type: cell-based; details: ATCC19433, 2×10^5 CFU/ml, 30 to 37° C., more than 24 hours
Description: as §1

[9] = tested on: Pityrosporum pacchydermatis ATCC 14522; assay: MIC by 2-fold dilution; type: cell-based; details: 2×10^5 CFU/ml; 30 to 37° C., more than 24 hours
Description: as §1

[10] = tested on: Streptococcus sanguis ATCC 35105; assay: MIC by 2-fold dilution; type: cell-based; details: ATCC35105, 2×10^5 CFU/ml, 30 to 37° C., more than 24 hours
Description: as §1

[11] = tested on: Streptomyces bikiniensis ATCC 11062; assay: MIC by 2-fold dilution; type: cell-based; details: ATCC11062, 2×10^5 CFU/ml, 30 to 37° C., more than 24 hours
Description: as §1

[12] = tested on: Salmonella typhimurium IFO 12529; assay: MIC by 2-fold dilution; type: cell-based; details: Salmonella enterica; 2×10^5 CFU/ml; 30 to 37° C., more than 24 hours
Description: as §1

[13] = tested on: Streptococcus sobrinus ATCC 27351; assay: MIC by 2-fold dilution; type: cell-based; details: ATCC27351, 2×10^5 CFU/ml, 30 to 37° C., more than 24 hours
Description: as §1

[14] = tested on: Penicilium citrinum IFO 6352; assay: MIC by 2-fold dilution; type: cell-based; details: 2×10^5 CFU/ml; 30 to 37° C., more than 24 hours
Description: as §1

[15] = tested on: Cladosporium cladosporioides IFO 6348; assay: MIC by 2-fold dilution; type: cell-based; details: IFO6348, 2×10^5 CFU/ml, 30 to 37° C., more than 24 hours
Description: as §1

[16] = tested on: Actinomyces viscosus ATCC 15988; assay: MIC by 2-fold dilution; type: cell-based; details: ATCC15988, 2×10^5 CFU/ml, 30 to 37° C., more than 24 hours
Description: as §1

[17] = tested on: Penicilium chrysogenum IFO 5472; assay: MIC by 2-fold dilution; type: cell-based; details: 2×10^5 CFU/ml; 30 to 37° C., more than 24 hours
Description: as §1

[18] = tested on: Bifidobacterium bifidum ATCC 29521; assay: MIC by 2-fold dilution; type: cell-based; details: ATCC29521, 2×10^5 CFU/ml, 30 to 37° C., more than 24 hours
Description: as §1

[19] = tested on: Candida glabrata IFO 0622; assay: MIC by 2-fold dilution; type: cell-based; details: Nakaseomyces glabratus, IFO0622; 2×10^5 CFU/ml; 30 to 37° C., more than 24 hours
Description: as §1

[20] = tested on: Lactobacillus aciophilus ATCC 4356; assay: MIC by 2-fold dilution; type: cell-based; details: ATCC4356, 2×10^5 CFU/ml, 30 to 37° C., more than 24 hours
Description: as §1

[21] = tested on: Candida albicans ATCC 10231; assay: MIC by 2-fold dilution; type: cell-based; details: ATCC10231, 2×10^5 CFU/ml, 30 to 37° C., more than 24 hours
Description: as §1

[22] = tested on: Porphyromonas gingivalis W 50; assay: MIC by 2-fold dilution; type: cell-based; details: W50, 2×10^5 CFU/ml, 30 to 37° C., more than 24 hours
Description: as §1

Streptococcus mutans [23] = assay: Viable cell count after xanthorrizol treatment; type: cell-based; details: xanthorrizol 0.0004%(4 μg/ml); 37° C.
Description: Xanthorrizol was also tested for Streptococcus mutans in a similar manner as described above: xanthorrizol was dissolved in DMSO to give specimens with a concentration of 0.0002%, 0.0004% and 0.0008%, respectively. Then, the specimens were incubated with the microorganism at 37° C. for 1, 2, 5 and 10 minutes, respectively, and subjected to serial 10-fold dilution. After the incubation with the pathogen, viable cell number for Streptococcus mutans was counted. FIG. 3 is a graph showing antibacterial activity of xanthorrizol against Streptococcus mutans in terms of viable cell number, where ♦ represents DMSO, control; ▪, 0.0002% crude extract; Δ, 0.0004% crude extract; x, 0.0008% crude extract, respectively.

human skin = assay: Skin safety patch test; type: in vivo
Streptococcus mutans [24] = assay: Thermal stability: well diffusion analysis after heating; type: cell-based; details: 0.1% in DMSO heated 30 minutes
Description: Xanthorrizol was dissolved in DMSO to prepare specimens with a concentration of 0.1%. The specimens were heated for 30 minutes at the temperature of 60° C., 70° C., 80° C., 90° C., 100° C. and 121° C., respectively. Then, antibacterial activity against Streptococcus mutans was determined for each specimen by well diffusion analysis, whose results are shown in Table 13.

Propionibacterium acnes = assay: Viable cell count after xanthorrizol treatment; type: cell-based; details: xanthorrizol 0.002%; 37° C.
Description: To measure the antibacterial activity of xanthorrizol, it was dissolved in DMSO to give specimens with a concentration of 0.001%, 0.0015% and 0.002%, respectively, and incubated with test microorganisms([…] CFU/ml) at 37° C. for 1, 2, 5, and 10 hours, respectively. Then, they were subjected to serial 10-fold dilution, incubated with an acne-causing pathogen, Propionibacterium acnes for 24 to 48 hours, and counted the viable cell number of the pathogen. FIG. 2 is a graph showing antibacterial activity of xanthorrizol in terms of viable cell numbers, where ♦ represents DMSO, control; ▪, 0.001% crude extract; ▾, 0.0015% crude extract; x, 0.002% crude extract, respectively.

the pathogens = assay: Change in cell morphology (TEM) after xanthorrizol treatment; type: cell-based; details: 10 μg/ml xanthorrizol for 30 minutes
Description: To assess the extent of xanthorrizol-mediated cell damage, 10 μg/ml xanthorrizol was treated to the pathogens for 30 minutes. […] Further, it was assumed that through the efflux of intracellular macromolecules and ions, the permeability of cell wall is increased to accelerate the efflux of intracellular components, which in turn inactivates cellular enzymes and causes the malfunction of cell wall.

Streptococcus mutans [25] = assay: Efflux of intracellular macromolecules and ions after xanthorrizol treatment; type: cell-based; details: 5 and 10 μg/ml xanthorrizol; FIGS. 4a, 4b, 5a, 5b
Description: Streptococcus mutans was treated with 5 and 10 μg/ml of xanthorrizol for 1, 2, 5 and 10 minutes, respectively, to examine the efflux of intracellular macromolecules and ions by the xanthorrizol-mediated cell damage. FIGS. 4a and 4b are graphs showing the efflux of neucleic acid and protein from Streptococcus mutans after xanthorrizol treatment, and FIGS. 5a and 5b, calcium efflux and magnesium efflux, where ♦ represents 0.1% DMSO, control; ▪, Streptococcus mutans treated with 5 μg/ml xanthorrizol; •, Streptococcus mutans treated with 10 μg/ml xanthorrizol, respectively.

[26] = Antibacterial activity of acetylated single compound; type: cell-based; details: acetylated form
Description: Since fraction II had some impurities, acetylation of the fraction was carried out to change its polarity as a procedure to obtain a single compound with antibacterial activity: 0.5 g of fraction II was dissolved in 5 ml pyridine, added with 5 ml of acetic anhydride in a drop-wise manner at ice-cold temperature, and stirred at room temperature for more than 15 hours. The reactant was subjected to partition extraction with 100 ml of ice-cold water once, and subsequently 100 ml of ethylacetate twice. The ethylacetate phase thus obtained was washed with 5% HCl, NaHCO3 and NaCl, dehydrated with anhydrous MgSO4, filtered and condensed under a reduced pressure. The resultant was finally applied onto a silica gel column(4.7×50 cm), and eluted with a solvent mixture of hexane and ethylacetate(15:1, v/v) to give an acetylated single compound. […] Then, 2 ml of 5% KOH was added to the compound, reacted with stirring for more than 2 hours, and neutralized using cation exchange resin(DOWEX50WX4-400), followed by filtration and condensation to give a single isolated compound. Thereafter, its molecular weight was measured with EI-MS(VG Platform II, FISIONS, 15 eV), and chemical identification was conducted using analytical instruments of ^1H-NMR, ^13C-NMR(400 MHz, CDCl3) and IR(Perkin Elmer spectrum I , DTGS detector). […]

## CN[C@H](CC(C)C)C(=O)N[C@H]1C(=O)N[C@@H](CC(N)=O)C(=O)N[C@H]2C(=O)N[C@H]3C(=O)N[C@H](C(=O)N[C@H](C(=O)O)c4cc(O)cc(O)c4-c4cc3ccc4O)[C@H](O)c3ccc(c(Cl)c3)Oc3cc2cc(c3O[C@@H]2O[C@H](CO)[C@@H](O)[C@H](O)[C@H]2O[C@H]2C[C@](C)(N)[C@H](O)[C@H](C)O2)Oc2ccc(cc2Cl)[C@H]1O [Vancomycin, vancomycin]
Streptococcus mutans [1]
  MIC: 1 µg/mL (≈ 0.69 µM)

## CC(C)=CCC[C@@H](C)c1ccc(C)c(O)c1 [xanthorrizol, 1,3,5,10-bisabolatetraen-3-ol]
[2]
  MIC: 62.5 µg/mL (≈ 286 µM)
[3]
  MIC: 4 µg/mL (≈ 18.3 µM)
[4]
  MIC: 16 µg/mL (≈ 73.3 µM)
[5]
  MIC: 250 µg/mL (≈ 1150 µM)
[6]
  MIC: 250 µg/mL (≈ 1150 µM)
[7]
  MIC: 2 µg/mL (≈ 9.16 µM)
[8]
  MIC: 16 µg/mL (≈ 73.3 µM)
[9]
  MIC: 125 µg/mL (≈ 573 µM)
[10]
  MIC: 4 µg/mL (≈ 18.3 µM)
[11]
  MIC: 32 µg/mL (≈ 147 µM)
[12]
  MIC: 62.5 µg/mL (≈ 286 µM)
[13]
  MIC: 4 µg/mL (≈ 18.3 µM)
[14]
  MIC: 250 µg/mL (≈ 1150 µM)
[15]
  MIC: 500 µg/mL (≈ 2290 µM)
[16]
  MIC: 16 µg/mL (≈ 73.3 µM)
[17]
  MIC: 125 µg/mL (≈ 573 µM)
[18]
  MIC: 250 µg/mL (≈ 1150 µM)
[19]
  MIC: 125 µg/mL (≈ 573 µM)
[20]
  MIC: 500 µg/mL (≈ 2290 µM)
[21]
  MIC: 125 µg/mL (≈ 573 µM)
[22]
  MIC: 32 µg/mL (≈ 147 µM)
Streptococcus mutans [23]
  Eradication of the microorganism (viable cell number, FIG. 3): eradicated almost completely in one minute
Human skin
  adverse effects such as erythema, scarring or edema on skin: do not cause adverse effects
Streptococcus mutans [24]; Treatment Temp. 60 ° C.
  Diameter of Clear Zone: 17 mm
Streptococcus mutans [24]; Treatment Temp. 70 ° C.
  Diameter of Clear Zone: 16 mm
Streptococcus mutans [24]; Treatment Temp. 80 ° C.
  Diameter of Clear Zone: 17 mm
Streptococcus mutans [24]; Treatment Temp. 90 ° C.
  Diameter of Clear Zone: 17 mm
Streptococcus mutans [24]; Treatment Temp. 100 ° C.
  Diameter of Clear Zone: 18 mm
Streptococcus mutans [24]; Treatment Temp. 121 ° C.
  Diameter of Clear Zone: 17 mm
Propionibacterium acnes
  Eradication of the microorganism (viable cell number, FIG. 2): eradicated almost completely in one hour
The pathogens
  cell morphology (TEM): cell wall expansion was detected, followed by cell disruption
Streptococcus mutans [25]
  efflux of protein, neucleic acid and ion: increased dramatically in 5 minutes

## CC(=O)Oc1cc(C(C)CCC=C(C)C)ccc1C (stereo not shown) [acetylated single compound]
[26]
  antibacterial activity: no antibacterial activity
